One block for each compound: values may come before it.
Legend:
[1] = system: islets isolated from WT, GKO, SKO, and dKO mice; experiment: Glucose-stimulated insulin secretion (GSIS) of isolated islets; assay type: cell-based, mouse; conditions: for GSIS (insulin secretion) versus solvent control: 16.7 mM glucose, 5 hour pre-treatment
Description: (§1) All chemicals were purchased from Sigma (Saint Louis, Mo.) unless indicated otherwise. Detailed protocols, reagents, and instruments for islet isolation, culture, and insulin secretion were the same as described previously (Wang et al., “Molecular Mechanisms for Hyperinsulinaemia Induced by Overproduction of Selenium-Dependent Glutathione Peroxidase-1 in Mice,” Diabetologia 51:1515-1524 (2008), which is hereby incorporated by reference in its entirety). Briefly, Langerhans' islets were isolated from the WT, GKO, SKO, and dKO mice using a standard procedure (Gotoh et al., “An Improved Method for Isolation of Mouse Pancreatic Islets,” Transplantation 40:437-438 (1985), which is hereby incorporated by reference in its entirety) with minor modifications. Isolated islets (50 per sample, n=3 per group) were recovered in RPMI 1640 (Gibco, Grand Island, N.Y.) with 5.5 mM glucose and 10% FBS for 2 hours before treatment. For the islet experiments, ebselen, CuDIPs, and Se (sodium selenite) were used at 50, 10, and 0.1 μM and prepared in DMSO, ethanol, and saline, respectively. The same amounts of vehicle were used as the respective controls. The chemicals were removed after 5 hour incubation, and the islets were transferred to Krebs-Henseleit buffer for 30 min and then incubated for 60 min with 2.8 or 16.7 mM glucose in the same buffer. The supernatants were collected for insulin analysis and the islets were used for mRNA, protein, and enzyme activity analyses.

GK = experiment: Islet GK enzyme activity after treatment; assay type: cell-based, mouse
Description: as §1
(§2) Islet GK activity was assayed at 28° C. by measuring absorbance increases of NADPH at 340 nm in a coupled enzyme system. One unit of GK activity was defined as the amount that catalyzes the formation of 1 μmole of glucose 6-phosphate per minute. Islet and liver LDH activities were measured using a kit from Sigma according to the manufacturer's instructions. Islet and liver GSR activities were measured as previously-described (Zhu et al., “Double Null of Selenium-Glutathione Peroxidase-1 and Copper, Zinc-Superoxide Dismutase Enhances Resistance of Mouse Primary Hepatocytes to Acetaminophen Toxicity,” Exp. Biol. Med. (Maywood) 231:545-552 (2006), which is hereby incorporated by reference in its entirety) and one unit of activity was defined as 1 nmol of glutathione disulfide reduced per minute. Plasma ALT activity was assayed using a kit (Thermo Scientific, Waltham, Mass.) according to the manufacturer's instructions. Plasma AKP activity was measured by the hydrolysis of p-nitrophenol phosphate to p-nitrophenol, and the enzyme activity unit was defined as the amount of activity that releases 1 μmol of p-nitrophenol per minute at 30° C. (Bowers et al., “A Continuous Spectrophotometric Method for Measuring the Activity of Serum Alkaline Phosphatase,” Clin. Chem. 12:70-89 (1966), which is hereby incorporated by reference in its entirety).

GLUT2 = experiment: Islet GLUT2 protein level (Western blot); assay type: cell-based, mouse
Description: as §1
(§3) Islet samples used for Western blot analysis were homogenized in phosphate buffer (50 mM, pH 7.4) containing 0.1% Triton X-100 and protease inhibitor mixture (AEBSF, aprotinin, bestatin hydrochloride, E-64-[N-(transepoxysuccinyl)-L-leucine 4-guanidinobutylamide], leupeptin, and pepstatin A). The homogenates were centrifuged at 14000×g for 10 min at 4° C. A total of 10 μg of protein per lane was subjected to Western blot analysis (McClung et al., “Development of Insulin Resistance and Obesity in Mice Overexpressing Cellular Glutathione Peroxidase,” Proc. Natl. Acad. Sci. USA 101:8852-8857 (2004), which is hereby incorporated by reference in its entirety). After the gel electrophoresis, the separated proteins were transferred onto a protran BA85 nitrocellulose membrane (Schleicher Schuell Bioscience, Keene, N.H.). The membranes were incubated first with respective primary antibodies (rabbit anti-GLUT2, anti-PDX1, and anti-UCP2, Millipore, Billerica, Mass.), and thereafter the second antibody against rabbit IgG (Bio-Rad, Hercules, Calif.). For loading and transfer normalization, the rabbit anti-β-actin antibody (Cell Signaling, Beverly, Mass.) was used. An enhanced chemiluminescent kit (Pierce, Rockford, Ill.) was used for detection of the band intensity.

PDX1 = experiment: Islet PDX1 protein level (Western blot); assay type: cell-based, mouse
Description: as §1, §3

UCP2 = experiment: Islet UCP2 protein level (Western blot); assay type: cell-based, mouse
Description: as §1, §3

[2] = system: gk, glut2, pdx1, ucp2 and genes in the ARE, GR, Wnt and NFAT pathways; experiment: Real time Q-PCR of islet mRNA levels (GSIS regulators, ARE, GR, Wnt, NFAT pathway genes); assay type: cell-based, mouse; conditions: dKO islets
Description: All chemicals were purchased from Sigma (Saint Louis, Mo.) unless indicated otherwise. Detailed protocols, reagents, and instruments for islet isolation, culture, and insulin secretion were the same as described previously (Wang et al., “Molecular Mechanisms for Hyperinsulinaemia Induced by Overproduction of Selenium-Dependent Glutathione Peroxidase-1 in Mice,” Diabetologia 51:1515-1524 (2008), which is hereby incorporated by reference in its entirety). Briefly, Langerhans' islets were isolated from the WT, GKO, SKO, and dKO mice using a standard procedure (Gotoh et al., “An Improved Method for Isolation of Mouse Pancreatic Islets,” Transplantation 40:437-438 (1985), which is hereby incorporated by reference in its entirety) with minor modifications. Isolated islets (50 per sample, n=3 per group) were recovered in RPMI 1640 (Gibco, Grand Island, N.Y.) with 5.5 mM glucose and 10% FBS for 2 hours before treatment. […]
Total RNA was extracted from islets using Trizol reagent (Invitrogen, Carlsbad, Calif.). […] Relative mRNA levels were determined by real time Q-PCR (7900HT; Applied Biosystems, Foster City, Calif.) as previously described (Pepper et al., “Impacts of Dietary Selenium Deficiency on Metabolic Phenotypes of Diet-Restricted GPX1-Overexpressing Mice,” Antioxid. Redox Signal. 14:383-390 (2011), which is hereby incorporated by reference in its entirety).

intracellular ROS = experiment: Islet intracellular ROS (DCFH-DA probe); assay type: cell-based, mouse; conditions: GKO islets, DCF probe
Description: Islet ROS levels were determined using the fluorescent probe, 2′,7′-dichlorofluorescin diacetate (“DCFH-DA”). Briefly, the treated islets were washed and incubated with DCFH-DA (20 μM) for 10 min at 37° C. After removal of the probe, cells were washed with pre-warmed PBS. Fluorescence was monitored at 488 nm excitation and 525 nm emission wavelengths.

[3] = system: lactate dehydrogenase (LDH); experiment: Islet LDH activity; assay type: cell-based, mouse; conditions: WT and GKO islets
Description: as §2

[4] = target: T1, glutathione reductase (GSR) (Mus musculus, UniProt P47791); experiment: Islet GSR activity; assay type: cell-based; conditions: WT and GKO islets
T1 construct: from tissue; host or cells: isolated pancreatic islets of WT and GKO mice
T1 sequence (P47791 27-500): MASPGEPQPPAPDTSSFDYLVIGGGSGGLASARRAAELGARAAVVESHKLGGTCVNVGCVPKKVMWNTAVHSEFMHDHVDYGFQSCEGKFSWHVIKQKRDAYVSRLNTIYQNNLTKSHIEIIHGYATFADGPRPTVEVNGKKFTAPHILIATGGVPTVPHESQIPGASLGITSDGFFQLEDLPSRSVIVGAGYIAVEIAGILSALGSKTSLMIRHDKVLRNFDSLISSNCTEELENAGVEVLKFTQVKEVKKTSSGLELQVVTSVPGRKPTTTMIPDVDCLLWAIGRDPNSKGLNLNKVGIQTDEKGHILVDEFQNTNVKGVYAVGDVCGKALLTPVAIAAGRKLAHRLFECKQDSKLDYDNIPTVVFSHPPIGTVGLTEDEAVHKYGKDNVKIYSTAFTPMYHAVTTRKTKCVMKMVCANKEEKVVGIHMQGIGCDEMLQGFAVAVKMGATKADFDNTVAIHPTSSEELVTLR
Description: as §2

GKO mice [5] = experiment: In vivo GSIS test in GKO mice (plasma insulin); parameters: species or system mouse; conditions: fasted GKO mice
Description: (§4) Ebselen was dissolved in dimethyl sulfoxide (DMSO) and injected with saline (1:1 by volume) together. The same volume of DMSO and saline was used as the solvent control. Blood glucose concentrations were measured by clipping tails and using the Glucometer Elite system (Bayer, Elkhart, Ind.). Plasma insulin concentrations were determined using a rat/mouse Insulin ELISA kit with mouse insulin as standards (Crystal Chem, Downers Grove, Ill.).

GKO mice [6] = experiment: Glucose tolerance test (GTT) in GKO mice; assay type: in vivo, mouse; conditions: fasted GKO mice, 50 mg/kg i.p., glucose 1 g/kg
Description: as §4

GKO mice [7] = experiment: Off-target toxicity in GKO mice (plasma ALT, AKP; liver LDH, GSR); assay type: in vivo, mouse; conditions: 50 mg/kg i.p., 1 hour
Description: as §4, §2

[8] = i.p. in 4% w/v hydroxypropyl-β-cyclodextrin to C57BL/6 mice or suspended in water orally to humans; cited from earlier work

Compound: copper diisopropylsalicylate [CuDIPs]
baseline insulin secretion versus solvent control ([1]; SKO islets, 2.8 mM glucose): promoted | GSIS (insulin secretion) versus solvent control ([1]; SKO islets): promoted | GSIS (insulin secretion) versus solvent control ([1]; WT islets): no effect | GK activity change versus control (direction) (GK; GKO islets): decrease | GK activity change versus control (direction) (GK; dKO islets): Neither CuDIPs nor Na2SeO3 affected | GLUT2 protein change versus control (direction) (GLUT2; GKO islets): increase | GLUT2 protein elevation versus control (GLUT2; SKO islets): 63% | GLUT2 protein change versus control (direction) (GLUT2; WT islets): increased | GLUT2 protein change versus control (direction) (GLUT2; dKO islets): Neither CuDIPs nor Na2SeO3 affected | PDX1 protein elevation versus control (PDX1; SKO islets): 2.4 fold | PDX1 protein change versus control (direction) (PDX1; WT islets): increased | PDX1 protein change versus control (direction) (PDX1; dKO islets): Neither CuDIPs nor Na2SeO3 affected | UCP2 protein decrease versus control (UCP2; SKO islets): 78% | UCP2 protein change versus control (direction) (UCP2; WT islets): increased | UCP2 protein change versus control (direction) (UCP2; dKO islets): Neither CuDIPs nor Na2SeO3 affected | expression of genes in the four pathways (ARE, GR, Wnt, NFAT) versus controls [2]: suppressed

Compound: O=[Se]([O-])[O-].[Na+].[Na+] [Na2SeO3, sodium selenite]
GSIS (insulin secretion) versus solvent control ([1]; GKO islets): did not affect | GSIS (insulin secretion) versus solvent control ([1]; SKO islets): elevated | GSIS (insulin secretion) versus solvent control ([1]; WT islets): did not affect | GSIS (insulin secretion) versus solvent control ([1]; dKO islets): elevated | GK activity change versus control (direction) (GK; GKO islets): increased | GK activity change versus control (direction) (GK; SKO islets): decreased | GK activity change versus control (direction) (GK; dKO islets): Neither CuDIPs nor Na2SeO3 affected | GLUT2 protein change versus control (direction) (GLUT2; dKO islets): Neither CuDIPs nor Na2SeO3 affected | PDX1 protein change versus control (direction) (PDX1; dKO islets): Neither CuDIPs nor Na2SeO3 affected | UCP2 protein change versus control (direction) (UCP2; dKO islets): Neither CuDIPs nor Na2SeO3 affected

effect on LDH activity [3]: no effect | effect on GSR activity [4]: no effect
Compound: O=c1c2ccccc2[se]n1-c1ccccc1 [ebselen]
GK activity elevation versus control (GK; GKO islets): 20% | GK activity elevation versus control (GK; SKO islets): 86% | GK activity elevation versus control (GK; WT islets): 74% | GK activity elevation versus control (GK; dKO islets): 58% | GLUT2 protein elevation versus control (GLUT2; GKO islets): 2.1 fold | GLUT2 protein elevation versus control (GLUT2; SKO islets): 6.4 fold | GLUT2 protein elevation versus control (GLUT2; WT islets): 4.9 fold | GLUT2 protein elevation versus control (GLUT2; dKO islets): 85% | PDX1 protein elevation versus control (PDX1; GKO islets): 4.0 fold | PDX1 protein elevation versus control (PDX1; SKO islets): 3.2 fold | PDX1 protein elevation versus control (PDX1; WT islets): 5.5 fold | decrease of intracellular ROS (intracellular ROS): 74% | elevation of plasma insulin concentration versus control (GKO mice [5]; 50 mg/kg i.p. 1 hour before glucose challenge, 0 min (baseline)): 95% | elevation of plasma insulin concentration versus control (GKO mice [5]; 50 mg/kg i.p., 15 min after the glucose challenge): 1.2 fold | elevation of plasma insulin concentration versus control (GKO mice [5]; 50 mg/kg i.p., 30 min after the glucose challenge): 91% | glucose clearance improved (GKO mice [6]; 15 min): 17% | glucose clearance improved (GKO mice [6]; 30 min): 18% | glucose clearance improved (GKO mice [6]; 60 min): 21% | hepatic GSR activity versus control (GKO mice [7]): no differences | hepatic LDH activity versus control (GKO mice [7]): no differences | plasma alanine aminotransferase (ALT) activity versus control (GKO mice [7]): no differences | plasma alkaline phosphatase (AKP) activity versus control (GKO mice [7]): no differences | absorption [8]: absorbed to blood | blood-brain barrier crossing [8]: crossed the blood-brain barrier
